Where two headings read alike, the source gives them in different places.
Tests used:
in vitro = details: human
Description: (§1) In addition, the effects on uninfected HFF host cells were assessed. […] The viability of HFF cultures following drug treatments was measured by alamarBlue assay, and the proliferation of T. gondii was quantified by measuring β‐galactosidase activity.

[1] = tested on: T. gondii β-gal tachyzoites; experiment: T. gondii β-gal tachyzoite proliferation in HFF (β-galactosidase/CPRG assay); details: for activity at 0.1 µM / activity at 1 µM: read-out: T. gondii β-gal proliferation (%); for T. gondii β-gal proliferation (%): 3 days, relative to 0.1 % DMSO control; for IC50: read-out: IC50 against T. gondii β-gal tachyzoite proliferation
Description: The compounds presented in this study were screened for biological activity in vitro against T. gondii β‐gal, a transgenic strain that constitutively expresses β‐galactosidase, which is grown in HFF monolayers. In addition, the effects on uninfected HFF host cells were assessed. […] The viability of HFF cultures following drug treatments was measured by alamarBlue assay, and the proliferation of T. gondii was quantified by measuring β‐galactosidase activity.
In vitro culture of parasites and host cells: If not stated otherwise, all tissue culture media were purchased from Gibco‐BRL, and biochemical reagents were from Sigma‐Aldrich). Human foreskin fibroblasts (HFF) were maintained in DMEM containing 10 % fetal calf serum (FCS; Gibco‐BRL) and antibiotics as described earlier.10 T. gondii β‐gal (transgenic T. gondii RH expressing the β‐galactosidase gene from E. coli 69 were maintained in HFF cells, and were isolated and separated from their host cells as described.10
In vitro assessment of drug efficacy: To study the effects of compounds against T. gondii tachyzoites in vitro, 1 mM stock solutions of complexes were prepared in DMSO, and stored at −20 °C. For assessment of drug efficacy against T. gondii tachyzoites, parasites were isolated and assays were performed using HFF as host cells as previously described.10 In short, 5×10^3 HFF cells per well were grown to confluence in a 96‐well plate in phenol‐red free culture medium at 37 °C with 5 % CO2. […] Initial assessments of drug efficacy were done by exposing parasite cultures to 0.1 and 1 μM of each compound for a period of three days, or 0.1 % DMSO was added as a control. […] After three days of incubation at 37 °C, 5 % CO2, medium was removed, and cell cultures were permeabilized by using 90 μL PBS containing 0.05 % Triton‐X‐100. After addition of 10 μL of 5 mM chlorophenol red‐β‐D‐galactopyranoside (CPRG; Roche Diagnostics) dissolved in PBS, the absorption shift was measured at 570 nm wavelength at various time points on a VersaMax multiplate reader (Bucher Biotec, Basel, Switzerland). For the initial screening at 0.1 and 1 μM, the activity, measured as the release of chlorophenol red over time, was calculated as percentage from DMSO control, which represented 100 % of T. gondii β‐gal growth. […] IC50 values were calculated after the logit‐log‐transformation of relative growth and subsequent regression analysis. All calculations were performed using the corresponding software tool contained in the Excel software package (Microsoft).

[2] = tested on: human foreskin fibroblasts (HFF)
Description: as §1

[3] = tested on: human foreskin fibroblasts (HFF); experiment: Cytotoxicity on uninfected confluent HFF (alamarBlue assay); details: 2.5 μM
Description: as §1

Row | Compound | viability at 3 days, 0.1 µM (in vitro) [%] | viability at 3 days, 1 µM (in vitro) [%] | activity at 0.1 µM ([1]; Toxoplasma gondii, 72 h) [%] | activity at 1 µM ([1]; Toxoplasma gondii, 72 h) [%] | further results
1 | CCN(CC)c1ccc2cc(C(=O)NCCCNC(=O)OC(C)(C)C)c(=O)oc2c1 [Compound 5] | 118 ± 10 | 88 ± 10 | 131 ± 3 | 118 ± 22 | 
2 | CCN(CC)c1ccc2cc(C(=O)NCCCCNC(=O)OC(C)(C)C)c(=O)oc2c1 [Compound 6] | 98 ± 8 | 82 ± 4 | 137 ± 9 | 125 ± 16 | 
3 | CC(C)(C)OC(=O)NCCCCNC(=O)c1cc2cc3c4c(c2oc1=O)CCCN4CCC3 [Compound 7] | 95 ± 9 | 96 ± 6 | 132 ± 6 | 148 ± 5 | 
4 | CCN(CC)c1ccc2cc(C(=O)NCCCN)c(=O)oc2c1 [Compound 8] | 96 ± 9 | 85 ± 6 | 117 ± 10 | 114 ± 13 | 
5 | CCN(CC)c1ccc2cc(C(=O)NCCCCN)c(=O)oc2c1 [Compound 9] | 125 ± 20 | 111 ± 4 | 114 ± 4 | 127 ± 4 | 
6 | NCCCCNC(=O)c1cc2cc3c4c(c2oc1=O)CCCN4CCC3 [Compound 10] | 124 ± 5 | 69 ± 9 | 101 ± 8 | 113 ± 7 | 
7 | O=C(O)c1cc2cc3c4c(c2oc1=O)CCCN4CCC3 [Dye2‐CO2H, 11‐oxo‐2,3,6,7‐tetrahydro‐1H,5H,11H‐pyrano[2,3‐f]pyrido[3,2,1‐ij]quinoline‐10‐carboxylic acid, reference compound] | 106 ± 1 | 105 | 69 ± 11 | 92 ± 6 | HFF viability (%) ([2]; 0.1 µM): did not affect viability of HFF; HFF viability (%) ([2]; 1 µM): did not affect viability of HFF; T. gondii β-gal proliferation (%) ([1]; 0.1 µM): 69%
8 | CCc1nc(N)nc(N)c1-c1ccc(Cl)cc1 [pyrimethamine, reference compound] |  |  |  |  | viability at 2.5 µM (in vitro): 99%; IC50 ([1]; Toxoplasma gondii, 72 h): 326 nM
9 | [(η6-p-MeC6H4Pri)2Ru2(µ2-SCH2C6H4-p-But)(µ2-SC6H4-p-OH)2]Cl [Compound 19] |  |  |  |  | HFF viability (%) ([2]; 0.1 µM): 62 ± 8%; HFF viability (%) ([2]; 1 µM): 56 ± 7%; HFF viability at 2.5 μM ([2]; 2.5 μM): 2%; reduction in HFF viability [3]: 98%; T. gondii β-gal proliferation (%) ([1]; 0.1 µM): 3 ± 1%; T. gondii β-gal proliferation (%) ([1]; 1 µM): 2 ± 0%; IC50 ([1]; three days of incubation, in HFF host cells, 6 concentrations 0.03-1 μM): 115 nM

Source: PMC7586963, “Coumarin‐Tagged Dinuclear Trithiolato‐Bridged Ruthenium(II)⋅Arene Complexes: Photophysical Properties and Antiparasitic Activity” (Chembiochem, 2020)
